Experimental data published in patent publication US8669266B2, “Quinoline-carboxamide derivatives as P2Y12 antagonists” (Sanofi, priority 2007, dated 2014).
pIC50: −log10 of the molar value.

molecular target: human P2Y12 receptor (Homo sapiens (Human), UniProt Q9H244); test: Human P2Y12 recombinant cell membrane binding assay with 33P 2MeS-ADP; conditions: CHO cell membranes with recombinant human P2Y12; competition against 33P 2MeS-ADP
Description: The ability of the compounds of the formula I to inhibit the P2Y12 receptor can be assessed by determining the concentration of the compound of the formula I that binds to the human P2Y12 Recombinant Cell Membrane Binding Assay with 33P 2MeS-ADP.
Human P2Y12 Recombinant Cell Membrane Binding Assay
The ability of a test compound to bind to the P2Y12 receptor was evaluated in a recombinant cell membrane binding assay. In this competitive binding assay, the test compound competed against a radiolabeled agonist for binding to the P2Y12 receptor, expressed on the cell membrane. Inhibition of binding of the labeled material was measured and correlated to the amount and potency of the test compound.
As source of P2Y12, a membrane preparation was prepared from Chinese Hamster Ovary (CHO) cells with recombinant expression of the human P2Y12 receptor according to standard procedures.
Next, wells were washed four times with 400 μl/well of stop buffer on a plate vacuum. The plate was disassembled and allowed to air dry overnight with the filter side up over night. […] The top of the filter plate was sealed with plastic plate covers. The sealed filter plate were incubated 2 hours at RT. A Microbeta Scintillation Counter was used to measure counts.
Compounds were diluted as 10 mM DMSO stocks and tested in a four-point, five-fold dilution series run in triplicate beginning at 10 μM, final concentration. Data were analyzed using a four-parameter curve fit with a fixed minimum and maximum experimentally defined as the average positive and negative controls on each plate.

Chain of human P2Y12 receptor (Q9H244 whole entry): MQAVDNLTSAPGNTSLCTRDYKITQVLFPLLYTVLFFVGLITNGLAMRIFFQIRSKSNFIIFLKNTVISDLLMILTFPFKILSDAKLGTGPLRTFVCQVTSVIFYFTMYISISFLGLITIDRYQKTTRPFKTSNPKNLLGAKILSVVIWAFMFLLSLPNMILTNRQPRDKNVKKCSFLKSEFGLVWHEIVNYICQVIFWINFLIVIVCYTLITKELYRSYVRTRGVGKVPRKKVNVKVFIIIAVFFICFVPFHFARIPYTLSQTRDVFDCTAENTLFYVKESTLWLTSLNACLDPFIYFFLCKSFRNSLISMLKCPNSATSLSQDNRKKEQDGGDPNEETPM

Row | SMILES | pIC50
1 | CCOC(=O)N1CCN(C(=O)[C@H](CCC(=O)OCC2CCCC2)NC(=O)c2cc(OCC(=O)N3CCC[C@H]3C(=O)NC3CCC3)c3ccc(C)cc3n2)CC1 [Example 246, 4-[(S)-2-({4-[2-((S)-2-Cyclobutylcarbamoyl-pyrrolidin-1-yl)-2-oxo-ethoxy]-7-methyl-quinoline-2-carbonyl}-amino)-4-cyclopentylmethoxycarbonyl-butyryl]-piperazine-1-carboxylic acid ethyl ester] | 7.15
2 | CCOC(=O)N1CCN(C(=O)[C@H](CCC(=O)O)NC(=O)c2cc(O[C@H](C)C(=O)N3CCC[C@H]3C(=O)N3CCCCC3)c3ccc(C)cc3n2)CC1 [Example 296, 4-{(S)-4-Carboxy-2-[(7-methyl-4-{(R)-1-methyl-2-oxo-2-[(S)-2-(piperidine-1-carbonyl)-pyrrolidin-1-yl]-ethoxy}-quinoline-2-carbonyl)-amino]-butyryl}-piperazine-1-carboxylic acid ethyl ester] | 7.92
3 | CCCCOC(=O)N1CC(NC(=O)[C@H](CCC(=O)O)NC(=O)c2cc(OCC(=O)N3CCC[C@H]3C(=O)NC3CCC3)c3ccccc3n2)C1 [Example 424, 3-[(S)-4-Carboxy-2-({4-[2-((S)-2-cyclobutylcarbamoyl-pyrrolidin-1-yl)-2-oxo-ethoxy]-quinoline-2-carbonyl}-amino)-butyrylamino]-azetidine-1-carboxylic acid butyl ester] | 7.48
4 | CCCCOC(=O)N1CCN(C(=O)CNC(=O)c2cc(OCC(=O)N3CCC[C@H]3C(=O)NC3CCC3)c3ccccc3n2)CC1 [Example 673, 4-[2-({4-[2-((S)-2-Cyclobutylcarbamoyl-pyrrolidin-1-yl)-2-oxo-ethoxy]-quinoline-2-carbonyl}-amino)-acetyl]-piperazine-1-carboxylic acid butyl ester] | 8.30
5 | Cc1ccc2c(OCC(=O)N3CCC[C@H]3C(=O)NC3CCC3)cc(C(=O)NCC(=O)N3CCN(C(=O)OCCC(F)(F)F)CC3)nc2c1 [Example 679, 4-[2-({4-[2-((S)-2-Cyclobutylcarbamoyl-pyrrolidin-1-yl)-2-oxo-ethoxy]-7-methyl-quinoline-2-carbonyl}-amino)-acetyl]-piperazine-1-carboxylic acid 3,3,3-trifluoro-propyl ester] | 8.52

Now from value to molecule:

Row | pIC50 | SMILES
6 | 8.05 | CCOC(=O)N1CCN(C(=O)[C@H](CC(=O)O)NC(=O)c2cc(OCC(=O)N3CCC[C@H]3C(=O)NC3CCC3)c3cc(F)c(C)cc3n2)CC1 [Example 270, 4-[(S)-3-Carboxy-2-({4-[2-((S)-2-cyclobutylcarbamoyl-pyrrolidin-1-yl)-2-oxo-ethoxy]-6-fluoro-7-methyl-quinoline-2-carbonyl}-amino)-propionyl]-piperazine-1-carboxylic acid ethyl ester]
7 | 8.30 | CCOC(=O)N1CCN(C(=O)[C@H](CCC(=O)O)NC(=O)c2cc(O[C@H](C)C(=O)N3CCC[C@H]3C(=O)NCC3CC3)c3ccc(C)cc3n2)CC1 [Example 300, 4-{(S)-4-Carboxy-2-[(4-{(R)-2-[(S)-2-(cyclopropylmethyl-carbamoyl)-pyrrolidin-1-yl]-1-methyl-2-oxo-ethoxy}-7-methyl-quinoline-2-carbonyl)-amino]-butyryl}-piperazine-1-carboxylic acid ethyl ester]
8 | 6.99 | CCOC(=O)N1CCN(C(=O)[C@H](CCC(=O)O)NC(=O)c2cc(OCC(=O)N3CCCC3c3ccccc3)c3ccccc3n2)CC1 (stereo partly drawn) [Example 334, 4-[(S)-4-Carboxy-2-({4-[2-oxo-2-(2-phenyl-pyrrolidin-1-yl)-ethoxy]-quinoline-2-carbonyl}-amino)-butyryl]-piperazine-1-carboxylic acid ethyl ester]
9 | 7.68 | CCCCOC(=O)N1CCN(C(=O)[C@H](CCC(=O)O)NC(=O)c2cc(OCC(=O)N3CCC[C@H]3C(=O)NC3CCC3)c3ccc(C)cc3c2)CC1 [Example 511, 4-[(S)-4-Carboxy-2-({4-[2-((S)-2-cyclobutylcarbamoyl-pyrrolidin-1-yl)-2-oxo-ethoxy]-7-methyl-naphthalene-2-carbonyl}-amino)-butyryl]-piperazine-1-carboxylic acid butyl ester]

system: human platelet rich plasma; test: Inhibition of human platelet aggregation, 96-well assay (ADP-induced, platelet rich plasma); format: cell-based; conditions: 20 min, 96-well plate, human PRP, aggregation induced by ADP, AUC of absorbance over 20 minutes, 37° C.
Description: Alternatively to a binding assay which measures a compound's ability to bind to the P2Y12 receptor, the effect on cellular function was also determined. This ability of the compound was evaluated in two platelet aggregation assays: in 96-well plates and with the “Born”-method using single cuvettes.
Whole blood was collected from healthy volunteers using 20 ml syringes containing 2 ml of ACD-A Aqua-Citrat-Dextrose-A, Fresenius). The anticoagulated whole blood was transferred into 15 ml polypropylene conical tubes (10 ml per tube). The tubes were centrifuged for 15 minutes at 150×g at RT without using the centrifuge brake. This procedure leads to a pellet of cellular components and a supernatant of platelet rich plasma (PRP). The PRP layer was collected from each tube and pooled for each donor. To avoid carry over of cellular components following centrifugation, approximately 5 ml of PRP was left in the tube. The platelet concentration was determined using a Coulter Counter.
The 15 ml tubes containing the pellet of cellular components were centrifuged again for 10 minutes at 1940×g. This pelleted out most particulate blood constituents remaining, leaving a layer of Platelet Poor Plasma (PPP). The PPP was collected for each donor. The PRP layer, previously set aside, was diluted with PPP to a final concentration of approximately 3×E8 platelets/ml with the PPP.
The human platelet aggregation assay is performed in 96-well plates using a microtiter plate reader (SpectraMax Plus 384 with SoftMax Pro software from Molecular Devices).
In the plate 15 μl of test compound at 10× final concentration in NaCl is mixed with 120 μl fresh PRP and incubated for 5 minutes. Following that incubation period, 15 μl of 40 μM ADP is added to the reaction mix. This addition of ADP is sufficient to induce aggregation in the absence of an inhibitor. The plates are then transferred to the microplate reader and aggregation is measured over 20 minutes. The instrument settings include: Absorbance at 650 nm, run time 20 minutes with readings in 1-minute intervals and 50 seconds shaking between readings all performed at 37° C. Results of the assay are expressed as % inhibition, and are calculated using area under curve (AUC) of the absorbance over 20 minutes.

Row | SMILES | pIC50
10 | CCOC(=O)N1CCN(C(=O)[C@H](CCC(=O)O)NC(=O)c2cc(OCC(=O)N3CCC(O)CC3)c3ccc(C)cc3n2)CC1 [Example 10, 4-[(S)-4-Carboxy-2-({4-[2-(4-hydroxy-piperidin-1-yl)-2-oxo-ethoxy]-7-methyl-quinoline-2-carbonyl}-amino)-butyryl]-piperazine-1-carboxylic acid ethyl ester] | 6.74
11 | CCNC(=O)[C@@H]1CCCN1C(=O)COc1cc(C(=O)N[C@@H](CCC(=O)O)C(=O)N2CCN(C(=O)OCC)CC2)nc2cccc(F)c12 [Example 179, 4-[(S)-4-Carboxy-2-({4-[2-((S)-2-ethylcarbamoyl-pyrrolidin-1-yl)-2-oxo-ethoxy]-5-fluoro-quinoline-2-carbonyl}-amino)-butyryl]-piperazine-1-carboxylic acid ethyl ester] | 7.52
12 | CCOC(=O)N1CCN(C(=O)[C@H](CCC(=O)O)NC(=O)c2cc(OCC(=O)N3CCC[C@H]3C(=O)NCC3CCC3)c3ccc(C)cc3n2)CC1 [Example 308, 4-{(S)-4-Carboxy-2-[(4-{2-[(S)-2-(cyclobutylmethyl-carbamoyl)-pyrrolidin-1-yl]-2-oxo-ethoxy}-7-methyl-quinoline-2-carbonyl)-amino]-butyryl}-piperazine-1-carboxylic acid ethyl ester] | 7.22
13 | CCCCOC(=O)N1CCN(C(=O)[C@H](CCC(=O)O)NC(=O)c2cc(OCC(=O)N3CCC[C@H]3C#N)c3ccc(C)cc3n2)CC1 [Example 460, 4-[(S)-4-Carboxy-2-({4-[2-((S)-2-cyano-pyrrolidin-1-yl)-2-oxo-ethoxy]-7-methyl-quinoline-2-carbonyl}-amino)-butyryl]-piperazine-1-carboxylic acid butyl ester] | 7.14
14 | CCCCOC(=O)N1CCN(C(=O)[C@H](CCC(=O)O)NC(=O)c2cc(OCC(=O)N3CC(O)C3)c3ccc(C)cc3n2)CC1 [Example 472, 4-[(S)-4-Carboxy-2-({4-[2-(3-hydroxy-azetidin-1-yl)-2-oxo-ethoxy]-7-methyl-quinoline-2-carbonyl}-amino)-butyryl]-piperazine-1-carboxylic acid butyl ester] | 7.19
